Results reported in patent publication US20230346969A1, “INTERMEDIATE FOR PREPARING ANTIBODY-DRUG CONJUGATE (ADC), PREPARATION METHOD THEREFOR, AND USE THEREOF” (priority 2020, published 2023).
Where two headings read alike, the source gives them in different places. Where a SMILES comes first, the peptide text is derived from it. [ ]: non-standard residue; d: D form. The star is where a group is joined. Dolaproine = CO[C@@H]([C@@H]1CCCN1)[C@@H](C)C(=O)O; Dil = CC[C@H](C)[C@H](NC)[C@@H](CC(=O)O)OC; X1 = C[C@@H](N*)[C@@H](O)c1ccccc1; NMeV = CN[C@H](C(=O)O)C(C)C

Legend:
Capan-1 = assay: Cell viability assay (CCK-8); format: cell-based; conditions: CCK-8, 96 hours, Pancreas, read-out: IC50 (95% Cl)
Method: (§1) Cell viability was determined using Cell Counting Kit 8 (CCK-8). Cells were seeded into 96-well plates at 3000-10000 cells/well. After incubation overnight, drugs were added at different concentrations. Plates were incubated in a 5% CO2, 37° C. humidified chamber for 96 hours. CCK8 reagent was added thereto and the plates were placed back to the incubator until the absorbance at 450 nm of untreated control cells was greater than 1.0. Growth inhibition was measured as the percent growth relative to untreated cells. Dose response curve was generated from the mean values of two or three tests, and IC50 values were calculated using Prism GraphPad software.
(§2) The anti-tumor efficacy of different payloads on different tumor cell lines was detected by CCK-8, and the results are shown in FIG. 5.

HCC1806 = assay: Cell viability assay (CCK-8); format: cell-based; conditions: CCK-8, 96 hours, Mamary, read-out: IC50 (95% Cl)
Method: as §1, §2

HT29 = assay: Cell viability assay (CCK-8); format: cell-based; conditions: CCK-8, 96 hours, Colon, read-out: IC50 (95% Cl)
Method: as §1, §2

BXPC-3 = assay: Cell viability assay (CCK-8); format: cell-based; conditions: CCK-8, 96 hours, Pancreas, read-out: IC50 (95% Cl)
Method: as §1, §2

SK-MES-1 = assay: Cell viability assay (CCK-8); format: cell-based; conditions: CCK-8, 96 hours, Lung, read-out: IC50 (95% Cl)
Method: as §1, §2

MDA-MB-231 = assay: Cell viability assay (CCK-8); format: cell-based; conditions: CCK-8, 96 hours, Mamary, read-out: IC50 (95% Cl)
Method: as §1, §2

SKBR3 = assay: Cell viability assay (CCK-8); format: cell-based; conditions: CCK-8, 96 hours, read-out: IC50 (95% Cl)
Method: as §1, §2

NCI-H1688 = assay: Cell viability assay (CCK-8); format: cell-based; conditions: CCK-8, 96 hours, Lung, read-out: IC50 (95% Cl)
Method: as §1, §2

COLO205 = assay: Cell viability assay (CCK-8); format: cell-based; conditions: CCK-8, 96 hours, read-out: IC50 (95% Cl)
Method: as §1, §2

MDA-MB-468 = assay: Cell viability assay (CCK-8); format: cell-based; conditions: CCK-8, 96 hours, read-out: IC50 (95% Cl)
Method: as §1, §2

CFPAC-1 = assay: Cell viability assay (CCK-8); format: cell-based; conditions: CCK-8, 96 hours, read-out: IC50 (95% Cl)
Method: as §1, §2

SCLC-21H = assay: Cell viability assay (CCK-8); format: cell-based; conditions: CCK-8, 96 hours, read-out: IC50 (95% Cl)
Method: as §1, §2

NCIH2452 = assay: Cell viability assay (CCK-8); format: cell-based; conditions: ADCs; CCK-8, 96 hours; cell 'HOC2401' [sic], Lung; read-out: IC50 (95% Cl)
Method: as §1, §2

[1] = Adverse effects and weight loss of mice treated in the efficacy models; format: in vivo, BALB/c nu/nu mice; conditions: mouse, in vivo
From the text: Five-week-old female athymic BALB/c nu/nu mice were purchased from Charles River Company (Shanghai, China), and mice were randomly divided into 5-6 mice/group. Animal handling and procedures were approved and performed in accordance with the requirements of the Institutional Animal Care and Use Committee (IACUC) of Shanghai Institute of Materia Medica, Chinese Academy of Sciences. All models were inoculated subcutaneously on the side of mice. BXPC-3, HCC1806 and NCIH1688 cells were established by injecting and homogenizing 5 × 10^6 cells in Matrigel matrix. COLO205 cells were established by injecting and suspending 1 × 10^7 cells in Matrigel matrix. After the tumor volume reached about 200 mm^3, the tumor-bearing mice were randomly divided into treatment groups and a control group according to the tumor volume. Each drug was administered intraperitoneally. Mice were injected at doses of 3 or 10 mg/kg (10 mL/kg). Tumor volume was defined as length × ½ × width × width. The percentage of inhibition was calculated by the following formula: (1-average tumor volume of the treatment group/average tumor volume of the control group)×100%. Toxicity of the different treatment groups was assessed by monitoring weight loss.

SKBR3 cells = assay: Endocytosis and intracellular localization of ADC by confocal microscopy; format: cell-based; conditions: 5 µg/mL, 37° C., 45 or 90 min
Method: SKBR3 cells were incubated with 5 µg/mL of hRS7-VK-PTX or hRS7-VK-SN38 in a 24-well plate (1 × 10^4 cells/well) in a 5% CO2, 37° C. incubator for 45 or 90 min. Cells were washed once with PBS, fixed and permeabilized. After washing, cells were stained with 488 goat anti-human IgG (H&L) or 555 anti-rabbit IgG F(ab′)2 fragment. Nuclear DNA was stained with 4′,6-dimidyl-2-phenylindole (DAPI). Immunofluorescence was recorded with an Olympus BK71 confocal microscope.
SKBR3 cells were incubated with ADC molecules at 37° C. for 45 or 90 min. Unbound ADC was removed by washing cells in a culture medium, then the cells were fixed and permeabilized. The marker proteins LAMP-1, GM130 and clathrin were detected with their respective antibodies and a secondary antibody conjugated to Alex®555 (red). Anti-Trop-2 ADC was detected with DyLight®488-conjugated secondary antibody (green). DAPI was used to stain nuclear DNA (blue).

Which results are given for `CC[C@H](C)[C@@H]([C@@H](CC(=O)N1CCC[C@H]1[C@H](OC)[C@@H](C)C(=O)N[C@H](C)[C@@H](O)c1ccccc1)OC)N(C)C(=O)[C@@H](NC(=O)[C@@H](NC)C(C)C)C(C)C` [MMAE] (H-[NMeV]V[Dil][Dolaproine]-X1)?
IC50 (Capan-1; free payloads, cell 'Cepes-3' [sic]): 0.366 nM; IC50 (HCC1806; free payloads, 'HCCHOI' [sic]): 0.0177 nM; IC50 (HT29; free payloads, cell 'H123' [sic]): ~3.05 nM; IC50 (BXPC-3; free payloads, cell 'BKFC-Y' [sic]): 0.263 nM; IC50 (SK-MES-1; free payloads, cell 'SK-M55-1' [sic]): 0.225 nM; IC50 (MDA-MB-231; free payloads, 'MCP-83-21' [sic]): > 300 nM; IC50 (SKBR3; free payloads, cell 'SK8RS' [sic], Mamary): 0.0327 nM; IC50 (NCI-H1688; free payloads, cell 'NCl-H1828' [sic]): 1.74 nM; IC50 (COLO205; free payloads, cell 'CCAO205' [sic], Colen): 0.155 nM; IC50 (MDA-MB-468; free payloads, cell printed 'MOA-413-468', Mamary): ~0.141 nM; IC50 (CFPAC-1; free payloads, cell CFPAC-1, Pancreas): > 300 nM; IC50 (SCLC-21H; free payloads, cell 'ECLC 214' [sic], Small cell lung): 0.0131 nM

What does the source list for hRS7-VK-SN38?
IC50 (Capan-1; ADCs, Cxoo-1 [sic]): 12.4 nM; IC50 (HCC1806; ADCs, 'HOC1906' [sic]): 0.879 nM; IC50 (HT29; ADCs, cell '3128' [sic]): 5.59 nM; IC50 (BXPC-3; ADCs, cell RMCA [sic]): 1.53 nM; IC50 (SK-MES-1; ADCs, cell 'SK-WSS-7' [sic]): 80.5 nM; IC50 (MDA-MB-231; ADCs, cell 'SRM-K9-231' [sic]): 3.03 nM; IC50 (SKBR3; ADCs, 'SKERS' [sic], Mammary): 1.45 nM; IC50 (NCI-H1688; ADCs, cell 'HCl-11685' [sic]): > 300 nM; IC50 (COLO205; ADCs, cell printed 'COXC28', Colon): 16.8 nM; IC50 (MDA-MB-468; ADCs, SRM-M9-409, Mammary): 1.37 nM; IC50 (NCIH2452): 10.3 nM; IC50 (CFPAC-1; ADCs, cell CPAC-1 [sic], Pancreas): 3.14 nM; IC50 (SCLC-21H; ADCs, SRM-C-21H): 16.3 nM; adverse effects or weight loss in treated mice, relative to hRS7-VK-PTX (none) [1]: stark contrast; internalization and intracellular localization (SKBR3 cells): did not undergo significant internalization
